# According to patent US20200352906A1, “Heterobicyclic Carboxylic Acids for Treating Cancer or Inflammatory Diseases” (Shenzhen Ionova Life Science Co., Ltd., priority 2018, published 2020):
# Key:
# [1] = test system: arthritis mice (AIA model); assay: In vivo anti-inflammatory activity, AIA arthritis model
# Procedure: Male Lewis Rates of 8-10 weeks old were fed with fixed amount of foods and free water at 20±2° C., under light in the 12-hour light and 12-hour darkness cycle and with the humidity of 45-70%. All mice were provided adjusted living for three days before they were used in test. 56 of such mice were divided into 7 groups with 8 mice in each group. One group was a control group and received only 1% CMCNa solution; one group was a model group and also received only 1% CMCNa solution; one group was a positive group and received Celecoxib at 18 mg/kg, and the other four groups received solutions of tested compound at the 1 mg/kg, 3 mg/kg, 10 mg/kg and […] dosages respectively.
# 1% CMC-Na was prepared with 1.00277 g of CMC-Na in 100 mL distilled water, heated with a 60° C. water bath until CMC-Na fully dissolved.
# 18 mg/kg Celecoxib capsule: 18.09 mg Celecoxib was placed into a grinder into which 10 mL 1% CMC-Na solution was added slowly. The mixture was ground until Celecoxib fully dissolved.
# 10 mg/kg C-003 solution: 10.08 mg of a tested compound (4-(1-{[2-Methyl-4-(4-trifluoromethyl-benzyl)-4H-thieno[3,2-b]pyrrole-3-carbonyl]-amino}-cyclopropyl)-benzoic acid diethanolamino salt, which is referred to hereinafter as INV-1120 diethanolamino salt) was added into a grinder, into which 10 mL 1% CMC-Na solution was slowly added until INV-1120 diethanolamino salt fully dissolved.
# 30 mg/kg INV-1120 solution: 30.3 mg of INV-1120 diethanolamino salt was added into a grinder, into which 10 mL 1% CMC-Na solution was slowly added until INV-1120 diethanolamino salt fully dissolved.
# 1 mg/kg INV-1120 was prepared by mixing 1.0 mL of 10 mg/kg INV-1120 diethanolamino salt solution with 9 mL 1% CMC-Na.
# 3 mg/kg INV-1120 was prepared by mixing 1.0 mL of 30 mg/kg INV-1120 diethanolamino salt solution with 9 mL 1% CMC-Na.
# After the mice were subject to Anesthesia, they were cleaned with medical alcohol at their right feet. The mice in the control group were administered with 50 uL PBS, and the mice of the other groups were treated at the right feet with 50 uL CDA solution. One day before the establishment of the model, the basic size (volume) of each mice was measured, the date of the model establishment was D1, test compound was administered at 1 mL/100 g to the stomach starting on D13 daily for 12 days (ending on D24).
# The mice were examined and photos were taken every three days for their water intakes, food intakes, and weights; every four days for their abilities to withstand weight at their rear feet; every three days for the swelling volumes and swelling thickness and temperatures of their feet, as well as their behaviors.
# Lewis lung carcinoma = assay: In vivo pharmacodynamic test on growth of LLC (Lewis Lung Cancer); set-up: species or system mice; conditions: 90 mg/kg/day, after 9 days of treatment, p<0.01 vs control
# Procedure: (§1) LLC (1×10^6 cells) were injected subcutaneously into the mid-dorsum of 6-week-old male C57BL/6 mice (The Jackson Laboratory, Bar Harbor, Me.) at 100 μL/mouse. Mice were systemically treated with INV-1120 (90 mg/kg/day), anti-PD1 (200 ug Q 3 days), INV-1120 (90 mg/kg/day) and anti-PD1 (200 ug Q 3 days), or vehicle (0.45% methylcellulose) in a total volume of 100 μL via orally by gavage. Treatment initiated when tumors reached approximately 249 mm^3 to 297 mm^3. Tumor size was measured by caliper (width^2×length×0.52=mm^3).
# [2] = test system: MC38 murine colon adenocarcinoma; assay: In vivo pharmacodynamic test on subcutaneous murine colon adenocarcinoma (MC38); set-up: species or system mice; conditions: 60 mg/kg/day, after 15 days of treatment, p<0.0001 vs control
# Procedure: All animal studies were reviewed and approved by the Animal Care and Use Committee of Beth Israel Deaconess Medical Center, Boston, Mass. Animals were housed at a maximum of 5 animals per cage in a pathogen-free facility with unlimited access to sterile water and chow. Daily welfare evaluations and animal sacrifices were carried out according to the Committee guidelines. MC38 mouse colon adenocarcinoma cells (Kerafast, Boston, Mass., USA) were cultured in DMEM that was supplemented with 10% FBS, 1% GPS, 0.1 mM nonessential amino acids (MilliporeSigma), 1 mM sodium pyruvate (MilliporeSigma), 10 mM Hepes (MilliporeSigma), and […] gentamycin sulfate (MilliporeSigma). Adherent cells were trypsinized, pelleted, counted by hemocytometer, and injected into mice at 1×10^6 cells/mL in PBS.
# as §1, with “Cells were” for “LLC (1×10^6 cells) were”, “with Compound 1 (INV-1120, 60” for “with INV-1120 (90”, “INV-1120 (60” for “INV-1120 (90”, “initiated on day 10 post-tumor cell injection,” for “initiated”, “approximately […]” for “approximately 249”, “to 224” for “to 297”
# B16F10 melanoma = assay: In vivo pharmacodynamic test on growth of B16F10 melanoma; set-up: species or system mice; conditions: 90 mg/kg/day, after 8 days of treatment, p<0.001 vs control
# Procedure: as §1, with “B16F10 (1×10^6” for “LLC (1×10^6”, “with Compound 1 (INV-1120, 90” for “with INV-1120 (90”, “initiated on day 10 post-tumor cell injection,” for “initiated”, “approximately 100” for “approximately 249”, “to 116” for “to 297”
# [3] = test system: colon cancer CT26 transplanted tumor; assay: In vivo pharmacodynamic test on growth of colon cancer CT26 transplanted tumor in mice
# Procedure: CT26 tumor cell line was maintained in vitro as monolayer culture in RPMI-1640 Media supplemented with 10% heat inactivated fetal calf serum at 37° C. in an atmosphere of 5% CO2 in air. The tumor cells were routinely sub-cultured twice weekly by trypsin-EDTA treatment, not to exceed 4-5 passages. The cells growing in an exponential growth phase were harvested and counted for tumor inoculation.
# Each mouse was inoculated subcutaneously on the right lower flank with the single cell suspension of 95% viable tumor cells (3×10^5) in 0.1 mL of serum-free RPMI 1640 Media for tumor development. Each mouse was administered with a test compound of this invention when mean tumor size reached approximately 100 mm^3. Each group consisted of 6 mice. The mice were randomized to different treatment groups as shown in the table under ‘Groups and Treatment’. The mice were lightly anesthetized before implantation. Care was taken to ensure subcutaneous delivery of cells by lifting up the fold of skin with sterilized forceps and injecting cells. Any tumors that completely or partially grew intradermally (ID) or intramuscularly (IM) were not used.
# CT26 cells were maintained in RPMI 1640 medium supplemented with 10% FBS at 37° C. and 5% CO2 atmosphere. Cell detachment was obtained using standard trypsinization methods, quantification of cell numbers and viability information using the NC-200 automated cell counter. Compound 1 (INV-1121) was thoroughly suspended in 0.5% methyl cellulose (MC) by sonication at 4° C. for 15 min before oral administration (p.o.) to animals. BALB/c mice were injected subcutaneously (s.c.) with live 1×10^5 […]. Mice developed tumors of approximately 36 mm^3 in 5 days. CT26 tumor-bearing mice were randomized and mapped into 5 groups of 10 mice each: group A received vehicle (0.5% MC); group B received 0.1 mg/kg of Compound 1; group C received 1 mg/kg of Compound 1, group D received 25 mg/kg of Compound 1; and group E received 150 mg/kg of Compound 1. All treatments were give Compound 1 p.o. daily for 21 consecutive days. Tumor volumes and body weights were measured twice weekly. Study was terminated 27 days after tumor cell injection. Tumor volumes were expressed as mean: t SEM. Tumor volume differences among treated mouse groups on day 27 were analyzed by the one-way ANOVA followed by Tukey's test. P<0.05 values were considered significant.
# For routine monitoring, all study animals were monitored not only tumor growth but also behavior such as mobility, food and water consumption (by cage side checking only), body weight (BW), eye/hair matting and any other abnormal effect. All mortality and/or abnormal clinical signs were recorded.
# Body weights of all animals are measured twice/week throughout the study. The measurement dates will specify as study design. Body weight change, expressed in %, was calculated using the following formula:
# BW change (%)=((BWDay X−BWDay 0)/BWDay 0)×100
# The measurement of tumor size was conducted twice/week with a caliper and the tumor volume (mm3) will be estimated using the formula: TV=a×b 2/2, where “a” and “b” is long and short diameters of a tumor, respectively. The TVs were used for calculation of the tumor growth inhibition (TGI, an indicator of antitumor effectiveness) value using the formula: TGI=(1−T/C)×100%, where “T” and “C” is the mean relative volumes (% tumor growth) of the tumors in the treated and the control groups, respectively. The experiment was terminated when the mean tumor volume exceeded 2000 mm3 or severe body weight loss.
# [4] = Example 6, studies as described in Example 5, compared with Example 5
# [5] = vs animals without administration of tested compounds
compound,measurement,setting,value
"Cc1sc2ccn(Cc3ccc(C(F)(F)F)cc3)c2c1C(=O)NC1(c2ccc(C(=O)O)cc2)CC1.NC(CO)(CO)CO [4-(1-{[2-Methyl-4-(4-trifluoromethyl-benzyl)-4H-thieno[3,2-b]pyrrole-3-carbonyl]-amino}-cyclopropyl)-benzoic acid tris(hydroxymethyl)aminomethane salt]",balancing or coordination ability after treatment,[1]; [4],better balancing or coordination ability
same,reduction of swelling on the arthritis feet,[1]; [4],even more effective reduction of swelling
"Cc1sc2ccn(Cc3ccc(C(F)(F)F)cc3)c2c1C(=O)NC1(c2ccc(C(=O)O)cc2)CC1.OCCNCCO [INV-1120 diethanolamino salt, 4-(1-{[2-Methyl-4-(4-trifluoromethyl-benzyl)-4H-thieno[3,2-b]pyrrole-3-carbonyl]-amino}-cyclopropyl)-benzoic acid diethanolamino salt]",temperatures of the feet,"[1]; 1, 3, 10 and 40 mg/kg to the stomach daily D13-D24, FIG. 5",had effect in lowering the temperatures
same,swelling (volumes and thickness) of the feet,"[1]; 1, 3, 10 and 40 mg/kg to the stomach daily D13-D24, FIG. 6",had effect in lowering the temperatures and swelling (both volumes and thickness)
same,"behavior patterns (e.g., balancing capability)","[1]; mouse, in vivo",improved behavior patterns
same,ability to withstand weight (rear feet),[1]; [5],greater weight gains and ability to withstand weight
same,weight gains,[1]; [5],greater weight gains
"Cc1sc2ccn(Cc3ccc(C(F)(F)F)cc3)c2c1C(=O)NC1(c2ccc(C(=O)O)cc2)CC1 [INV-1120, 4-(1-{[2-Methyl-4-(4-trifluoromethyl-benzyl)-4H-thieno[3,2-b]pyrrole-3-carbonyl]-amino}-cyclopropyl)-benzoic acid]",inhibition of primary Lewis lung carcinoma growth vs control,Lewis lung carcinoma,inhibited primary Lewis lung carcinoma growth
same,inhibition of primary tumor growth vs control,[2],inhibited primary MC38 murine colon adenocarcinoma
same,inhibition of primary melanoma growth vs control,B16F10 melanoma,inhibited primary 16F10 melanoma growth
O=C(O)c1ccc(C2(NC(=O)c3csc4ccn(Cc5ccc(C(F)(F)F)cc5)c34)CC2)cc1 [INV-1121],tumor growth inhibition,[3]; 0.1 mg/kg p.o. daily,"some inhibition was observed, but without statistical significance"
same,tumor growth inhibition,[3]; 1.0 mg/kg p.o. daily,"some inhibition was observed, but without statistical significance"
same,anti-tumor activity,[3]; 25 mg/kg p.o. daily,significant and comparable anti-tumor activity
same,anti-tumor activity,[3]; 150 Mg/kg p.o. daily,significant and comparable anti-tumor activity
same,gross toxicity judged from animal body weight and overall animal behavior,"[3]; all doses tested, 0.1-150 mg/kg p.o. daily",None of the doses tested showed gross toxicity
same,"tumor growth inhibition, dose dependence","[3]; daily oral administration, range 0.1 mg/kg-150 mg/kg, 21 consecutive days, FIG. 1",inhibited the tumor growth in a dose-dependent manner
